Reference: publication PMC7265341, “Quantifying CDK inhibitor selectivity in live cells” (Nature Communications, 2020)
“And” between values parts separate entries of the source, which are not always exact repeats. Equal entries are not always repeated. Where two headings read alike, the source gives them in different places.

Key:
CDK10/Cyclin L2 = CDK10/Cyclin L2 (Homo sapiens, UniProt Q15131); experiment: NanoBRET live-cell target engagement, CDK10-NanoLuc/Cyclin L2 in HEK-293; conditions: 10µM
Chain of CDK10/Cyclin L2 (Q15131 whole entry): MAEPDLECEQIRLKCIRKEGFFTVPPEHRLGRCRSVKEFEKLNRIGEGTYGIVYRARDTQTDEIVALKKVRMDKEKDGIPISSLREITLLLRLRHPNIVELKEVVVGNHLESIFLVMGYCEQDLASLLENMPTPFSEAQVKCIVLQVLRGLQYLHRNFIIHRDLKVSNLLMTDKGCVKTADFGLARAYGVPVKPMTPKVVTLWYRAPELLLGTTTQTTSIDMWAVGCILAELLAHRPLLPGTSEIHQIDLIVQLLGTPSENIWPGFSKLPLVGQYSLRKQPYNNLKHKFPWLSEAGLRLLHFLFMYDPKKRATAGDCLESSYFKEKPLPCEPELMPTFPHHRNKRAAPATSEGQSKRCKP

phospho-Rb (Ser 807/811) = experiment: Endogenous phospho-Rb (Ser 807/811) Lumit immunoassay in MCF7 cells; format: cell-based, human; conditions: for Normalized pRB (%): Panel E;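 for all read-outs here: Serum-starved cells exposed to compounds for 24 h with 25 ng/mL hEGF, then lysed, phospho-Rb detected by split-luciferase antibody pair luminescence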
CDK14/Cyclin Y = CDK14/Cyclin Y (Homo sapiens, UniProt O94921); experiment: NanoBRET live-cell target engagement, CDK14-NanoLuc/Cyclin Y in HEK-293; format: binding
Chain of CDK14/Cyclin Y (O94921 whole entry): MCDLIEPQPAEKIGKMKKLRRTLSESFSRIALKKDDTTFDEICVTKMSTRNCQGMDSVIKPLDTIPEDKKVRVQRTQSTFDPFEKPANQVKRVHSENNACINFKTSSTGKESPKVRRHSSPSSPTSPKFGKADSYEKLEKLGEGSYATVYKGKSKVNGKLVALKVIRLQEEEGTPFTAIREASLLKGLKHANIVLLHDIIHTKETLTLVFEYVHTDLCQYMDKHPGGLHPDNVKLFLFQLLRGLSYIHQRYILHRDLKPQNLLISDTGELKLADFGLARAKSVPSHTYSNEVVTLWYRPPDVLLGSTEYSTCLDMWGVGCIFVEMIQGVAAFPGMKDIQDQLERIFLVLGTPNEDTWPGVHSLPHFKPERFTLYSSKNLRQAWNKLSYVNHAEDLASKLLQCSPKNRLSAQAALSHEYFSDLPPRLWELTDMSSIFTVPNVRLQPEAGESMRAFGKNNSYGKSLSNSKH
Chain of CDK14/Cyclin Y (Q8ND76 whole entry partner): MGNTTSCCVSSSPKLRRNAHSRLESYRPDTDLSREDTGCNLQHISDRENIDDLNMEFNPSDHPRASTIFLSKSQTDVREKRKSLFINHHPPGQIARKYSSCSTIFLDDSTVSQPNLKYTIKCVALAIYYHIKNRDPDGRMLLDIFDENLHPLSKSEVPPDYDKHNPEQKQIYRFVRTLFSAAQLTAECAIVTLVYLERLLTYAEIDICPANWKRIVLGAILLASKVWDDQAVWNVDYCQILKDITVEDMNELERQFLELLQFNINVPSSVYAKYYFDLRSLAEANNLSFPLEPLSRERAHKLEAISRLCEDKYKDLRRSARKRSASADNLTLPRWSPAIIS

all 21 human CDKs = experiment: Live-cell selectivity profile across all 21 CDK/cyclin complexes in HEK-293; format: binding; conditions: live HEK-293; for IC50: remaining CDK family, read-out: Collateral CDK (potency)
[1] = read-out: Inhibition at 10µM (%) Average, CDK10/L2, average of replicates
[2] = read-out: Inhibition at 10µM (%) Replicate 1, CDK10/L2
[3] = read-out: Inhibition at 10µM (%) Replicate 2, CDK10/L2
[4] = CDK14/Y, average of replicates, read-out: Inhibition at 10µM (%) Average
[5] = CDK14/Y, read-out: Inhibition at 10µM (%) Replicate 1
[6] = CDK14/Y, read-out: Inhibition at 10µM (%) Replicate 2

| Structure (SMILES) | inhibition at 10 µM (CDK10/Cyclin L2; [1]) [%] | inhibition at 10 µM (CDK10/Cyclin L2; [2]) [%] | inhibition at 10 µM (CDK10/Cyclin L2; [3]) [%] | inhibition at 10 µM (CDK14/Cyclin Y; [4]) [%] | inhibition at 10 µM (CDK14/Cyclin Y; [5]) [%] | inhibition at 10 µM (CDK14/Cyclin Y; [6]) [%] | IC50 (all 21 human CDKs) [µM] | other results |
| --- | --- | --- | --- | --- | --- | --- | --- | --- |
| CCN1CCN(Cc2ccc(Nc3ncc(F)c(-c4cc(F)c5nc(C)n(C(C)C)c5c4)n3)nc2)CC1 [Abemaciclib] | 20.9 | 21.5 | 20.2 | – | – | – | – | IC50 (phospho-Rb (Ser 807/811); Homo sapiens, MCF7 cells, Panel F pIC50 correlations): 0.0457 µM; Normalized pRB (%) (phospho-Rb (Ser 807/811); LOG10([Compound]) (LOG10(µM)) 0.0457575): 13.6% and 13.3%; Normalized pRB (%) (phospho-Rb (Ser 807/811); LOG10([Compound]) (LOG10(µM)) 0.522879): 24.5% and 23.6% and 23.2%; Normalized pRB (%) (phospho-Rb (Ser 807/811); LOG10([Compound]) (LOG10(µM)) 1): 20.9% and 22.5% and 21.5%; Normalized pRB (%) (phospho-Rb (Ser 807/811); LOG10([Compound]) (LOG10(µM)) -0.431364): 18% and 19.1% and 18.8%; Normalized pRB (%) (phospho-Rb (Ser 807/811); LOG10([Compound]) (LOG10(µM)) -0.908485): 36.6% and 37.6% and 36.8%; Normalized pRB (%) (phospho-Rb (Ser 807/811); LOG10([Compound]) (LOG10(µM)) -1.38561): 61.8% and 62.2% and 61%; Normalized pRB (%) (phospho-Rb (Ser 807/811); LOG10([Compound]) (LOG10(µM)) -1.86273): 80.7% and 77.6% and 81.4%; Normalized pRB (%) (phospho-Rb (Ser 807/811); LOG10([Compound]) (LOG10(µM)) -2.33985): 90.7% and 95% and 86.6%; Normalized pRB (%) (phospho-Rb (Ser 807/811); LOG10([Compound]) (LOG10(µM)) -2.81697): 91.8% and 94.4% and 95%; Normalized pRB (%) (phospho-Rb (Ser 807/811); LOG10([Compound]) (LOG10(µM)) -3.29409): 93.5% and 103% and 101.1% |
| COc1cc(F)ccc1-c1ncnc(Nc2cccc(C[S@](C)(=N)=O)c2)n1 [Atuveciclib] | 6.3 | 9.2 | 3.4 | 3 | 8.4 | -2.5 | > 1 | – |
| CCCCOc1c(C(=O)c2c(F)cc(C)cc2F)c[nH]c2nncc1-2 [BMS-265246] | 11.1 | 5.3 | 17 | 43.5 | 68.1 | 18.8 | – | IC50 (CDK14/Cyclin Y; CDK14/Y, n=3 average ± SEM, n=2 average to 2 significant figures, read-out: IC50 (nM) Average*): 200 ± 200 nM; IC50 (CDK14/Cyclin Y; CDK14/Y, read-out: IC50 (nM) Replicate 1): 10 nM; IC50 (CDK14/Cyclin Y; CDK14/Y, read-out: IC50 (nM) Replicate 2): 100 nM; IC50 (CDK14/Cyclin Y; CDK14/Y, read-out: IC50 (nM) Replicate 3): 570 nM; selectivity index for CDK8/19 over CDK1/2 (all 21 human CDKs): > 10 fold |
| CC(C)c1cnn2c(NCc3ccccc3)cc(NCCCCCCN)nc12 [BS-181] | 31.2 | 25.6 | 36.7 | – | – | – | > 1 | inhibition at 10 µM (CDK14/Cyclin Y; read-out: Inhibition at 10µM (%) Average, CDK14/Y, average of replicates): 15.8%; inhibition at 10 µM (CDK14/Cyclin Y; read-out: Inhibition at 10µM (%) Replicate 1, CDK14/Y): 11.3%; inhibition at 10 µM (CDK14/Cyclin Y; read-out: Inhibition at 10µM (%) Replicate 2, CDK14/Y): 20.4% |
